What all share (format): biochemical
Assay [1] concerns the target KAT6A Full length enzyme (Homo sapiens (Human), UniProt Q92794). Nature of the assay: KAT6A assay (SAMDI-MS acetylation of H3 1-21 peptide). Particulars: Morrison equation fit; replicate number in parentheses; read-out: KAT6A Ki (nM) (replicate number).
Assay [2] concerns the target KAT7+JADE1+EAF6+ING5 4 protein complex (Homo sapiens (Human), UniProt O95251). In words: KAT7 JADE1 assay (SAMDI-MS acetylation of H3 1-21 peptide). Particulars: Morrison equation fit; replicate number in parentheses; read-out: KAT7 JADE1 Ki (nM) (replicate number).
Assay [3] deals with KAT8 Full length enzyme (Homo sapiens (Human), UniProt Q9H7Z6). In words: KAT8 assay (SAMDI-MS acetylation of H3 1-21 peptide). The settings on record: Morrison equation fit; replicate number in parentheses; read-out: KAT8 Ki (nM) (replicate number).
KAT8 Full length enzyme, sequence (Q9H7Z6 whole entry): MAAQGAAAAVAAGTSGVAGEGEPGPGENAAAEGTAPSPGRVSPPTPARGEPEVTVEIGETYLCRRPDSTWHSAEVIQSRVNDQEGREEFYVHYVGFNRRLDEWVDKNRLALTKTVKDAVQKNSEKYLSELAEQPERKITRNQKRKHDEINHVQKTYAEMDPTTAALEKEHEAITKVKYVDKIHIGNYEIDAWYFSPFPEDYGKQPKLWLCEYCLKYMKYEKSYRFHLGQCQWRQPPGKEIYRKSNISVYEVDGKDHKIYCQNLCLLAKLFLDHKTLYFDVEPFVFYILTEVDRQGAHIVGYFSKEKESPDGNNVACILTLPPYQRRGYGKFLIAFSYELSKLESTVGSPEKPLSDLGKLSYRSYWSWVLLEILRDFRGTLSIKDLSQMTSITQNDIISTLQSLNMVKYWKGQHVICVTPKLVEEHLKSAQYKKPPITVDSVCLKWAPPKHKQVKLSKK
The target in assay [4] is KAT5 Full length enzyme (Homo sapiens (Human), UniProt Q92993). In words: KAT5 assay (SAMDI-MS acetylation of H4 1-21 peptide). The settings on record: Morrison equation fit; replicate number in parentheses; read-out: KAT5 Ki (nM) (replicate number).
KAT5 Full length enzyme, sequence (Q92993 whole entry): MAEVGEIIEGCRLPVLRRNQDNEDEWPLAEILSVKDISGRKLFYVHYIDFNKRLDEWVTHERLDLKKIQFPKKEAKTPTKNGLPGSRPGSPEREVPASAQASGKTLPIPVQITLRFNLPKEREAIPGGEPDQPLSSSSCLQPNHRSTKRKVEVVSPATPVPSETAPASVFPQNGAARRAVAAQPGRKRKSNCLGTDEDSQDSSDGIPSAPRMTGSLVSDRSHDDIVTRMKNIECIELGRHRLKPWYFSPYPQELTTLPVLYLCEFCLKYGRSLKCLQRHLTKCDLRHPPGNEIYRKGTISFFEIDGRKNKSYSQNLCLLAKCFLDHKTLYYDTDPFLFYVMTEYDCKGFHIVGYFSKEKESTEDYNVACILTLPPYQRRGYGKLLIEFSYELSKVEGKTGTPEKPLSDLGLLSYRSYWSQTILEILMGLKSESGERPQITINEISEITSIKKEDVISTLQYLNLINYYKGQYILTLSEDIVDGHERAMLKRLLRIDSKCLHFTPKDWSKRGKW

KAT6A Full length enzyme, sequence (Q92794 other isoform, or with tags, fused parts or gaps): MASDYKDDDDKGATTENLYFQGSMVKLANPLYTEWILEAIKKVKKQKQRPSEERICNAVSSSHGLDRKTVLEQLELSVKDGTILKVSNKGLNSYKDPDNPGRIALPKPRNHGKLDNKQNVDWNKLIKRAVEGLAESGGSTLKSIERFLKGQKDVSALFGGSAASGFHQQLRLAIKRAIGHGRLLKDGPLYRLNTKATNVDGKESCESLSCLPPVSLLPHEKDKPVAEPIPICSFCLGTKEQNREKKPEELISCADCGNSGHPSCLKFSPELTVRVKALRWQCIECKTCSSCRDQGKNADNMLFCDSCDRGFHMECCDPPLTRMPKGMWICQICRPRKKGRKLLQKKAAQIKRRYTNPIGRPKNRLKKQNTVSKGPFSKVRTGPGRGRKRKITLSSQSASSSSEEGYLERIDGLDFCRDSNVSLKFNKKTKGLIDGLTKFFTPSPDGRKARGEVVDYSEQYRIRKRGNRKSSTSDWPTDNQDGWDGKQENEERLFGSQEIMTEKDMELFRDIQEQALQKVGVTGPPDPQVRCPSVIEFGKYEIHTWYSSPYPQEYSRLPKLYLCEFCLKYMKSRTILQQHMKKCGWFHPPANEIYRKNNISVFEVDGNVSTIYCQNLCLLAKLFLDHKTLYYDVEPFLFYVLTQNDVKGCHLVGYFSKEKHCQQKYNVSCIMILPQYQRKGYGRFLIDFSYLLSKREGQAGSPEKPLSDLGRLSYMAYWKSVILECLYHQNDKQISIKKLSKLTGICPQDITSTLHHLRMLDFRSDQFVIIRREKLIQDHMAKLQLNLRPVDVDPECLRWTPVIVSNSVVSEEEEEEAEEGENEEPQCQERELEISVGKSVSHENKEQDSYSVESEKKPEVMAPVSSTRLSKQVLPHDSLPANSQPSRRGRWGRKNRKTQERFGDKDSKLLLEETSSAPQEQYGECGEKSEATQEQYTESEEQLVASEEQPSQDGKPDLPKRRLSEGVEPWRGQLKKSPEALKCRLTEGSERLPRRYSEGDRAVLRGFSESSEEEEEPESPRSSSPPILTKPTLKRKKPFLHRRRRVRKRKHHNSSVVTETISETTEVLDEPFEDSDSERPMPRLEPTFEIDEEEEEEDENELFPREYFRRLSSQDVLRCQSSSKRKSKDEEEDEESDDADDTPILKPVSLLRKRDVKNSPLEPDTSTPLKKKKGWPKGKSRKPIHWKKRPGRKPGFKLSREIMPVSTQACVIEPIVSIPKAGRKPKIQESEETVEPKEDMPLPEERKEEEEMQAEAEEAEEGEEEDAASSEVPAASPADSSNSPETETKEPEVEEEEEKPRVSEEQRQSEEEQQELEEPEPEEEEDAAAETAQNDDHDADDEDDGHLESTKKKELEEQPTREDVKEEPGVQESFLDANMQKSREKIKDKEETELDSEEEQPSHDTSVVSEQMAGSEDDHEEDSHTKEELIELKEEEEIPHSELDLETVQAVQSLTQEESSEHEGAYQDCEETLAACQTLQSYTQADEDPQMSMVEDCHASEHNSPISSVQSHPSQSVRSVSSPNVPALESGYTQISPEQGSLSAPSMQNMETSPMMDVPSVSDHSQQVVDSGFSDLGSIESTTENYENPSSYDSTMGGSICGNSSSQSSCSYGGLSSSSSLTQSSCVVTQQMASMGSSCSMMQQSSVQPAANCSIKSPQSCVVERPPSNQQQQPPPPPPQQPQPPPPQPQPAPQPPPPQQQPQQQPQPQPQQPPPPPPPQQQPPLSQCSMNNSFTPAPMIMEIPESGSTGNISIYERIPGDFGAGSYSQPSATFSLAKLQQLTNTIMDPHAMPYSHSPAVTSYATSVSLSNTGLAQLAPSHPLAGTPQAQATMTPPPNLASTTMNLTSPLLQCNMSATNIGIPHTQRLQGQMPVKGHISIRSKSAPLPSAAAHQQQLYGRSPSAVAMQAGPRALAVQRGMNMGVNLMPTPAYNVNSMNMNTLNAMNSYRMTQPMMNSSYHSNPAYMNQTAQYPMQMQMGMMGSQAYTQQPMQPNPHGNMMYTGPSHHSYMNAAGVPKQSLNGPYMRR

One may read the Ki as the equilibrium dissociation constant of an inhibitor or competing ligand from its target. As for `COc1cc2c(NS(=O)(=O)c3c(OC)cc(-c4ncc(CN(C)C)cn4)cc3OC)noc2cc1Nc1cc(C2CC2)n[nH]1` [Example 223, N-{6-[(3-cyclopropyl-1H-pyrazol-5-yl)amino]-5-methoxy-1,2-benzoxazol-3-yl}-4-{5-[(dimethylamino)methyl]pyrimidin-2-yl}-2,6-dimethoxybenzene-1-sulfonamide], the Ki in assay [1] is 0.4 nM; in assay [2], 4 nM; in assay [3] it was 679 nM; in assay [4] it was 25.4 nM.

As for `COc1cc2c(NS(=O)(=O)c3c(OC)cccc3OC)noc2cc1Nc1cc(C(C)(C)C)n[nH]1` [Example 116, N-{6-[(3-tert-butyl-1H-pyrazol-5-yl)amino]-5-methoxy-1,2-benzoxazol-3-yl}-2,6-dimethoxybenzene-1-sulfonamide], the inhibition constant Ki in assay [1] worked out at 11.8 nM; in assay [2], 98 nM; in assay [3], 7900 nM; in assay [4] it was 546 nM.

In the case of `COc1cc2c(NS(=O)(=O)c3c(OC)cc(-c4ccn(C)n4)cc3OC)noc2cc1Nc1cc(C2CC2C)n[nH]1` (single isomer, unassigned) [Example 242, 2,6-dimethoxy-N-(5-methoxy-6-{[3-(2-methylcyclopropyl)-1 H-pyrazol-5-yl]amino}-1,2-benzoxazol-3-yl)-4-(1-methyl-1H-pyrazol-3-yl)benzene-1-sulfonamide], the Ki was 0.9 nM in assay [1], 9.2 nM in assay [2], 439 nM in assay [3] and 34 nM in assay [4].

In the case of `COc1cccc(OC)c1S(=O)(=O)Nc1noc2cc(Nc3ncccn3)cc(OC)c12` [Example 20, 2,6-dimethoxy-N-{4-methoxy-6-[(pyrimidin-2-yl)amino]-1,2-benzoxazol-3-yl}benzene-1-sulfonamide], the Ki is 5.3 nM in assay [1], 1540 nM in assay [2], 14600 nM in assay [3] and 9380 nM in assay [4].

Take `COc1cc2c(NS(=O)(=O)c3c(OC)cc(C4COCCN4C)cc3OC)noc2cc1Nc1cc(C2CC2)[nH]n1` (single isomer, unassigned) [Example 180, N-{6-[(5-cyclopropyl-1 H-pyrazol-3-yl)amino]-5-methoxy-1,2-benzoxazol-3-yl}-2,6-dimethoxy-4-(4-methylmorpholin-3-yl)benzene-1-sulfonamide]: the inhibitory constant (Ki) in assay [1] was 1.7 nM; in assay [2], 6.5 nM; in assay [3] it was 3370 nM; in assay [4], 94.8 nM.

For `CCc1cc(Nc2cc3onc(NS(=O)(=O)c4ccc(OC)c(F)c4)c3cc2OC)n[nH]1` [Example 133, N-{6-[(5-ethyl-1 H-pyrazol-3-yl)amino]-5-methoxy-1,2-benzoxazol-3-yl}-3-fluoro-4-methoxybenzene-1-sulfonamide], the Ki was 78.7 nM in assay [1], 321 nM in assay [2], greater than 13000 nM in assay [3] and 6210 nM in assay [4].

On to `COc1cc2c(NS(=O)(=O)c3c(OC)cccc3OC)noc2cc1Nc1nccc(C)n1` [Example 105, 2,6-dimethoxy-N-{5-methoxy-6-[(4-methylpyrimidin-2-yl)amino]-1,2-benzoxazol-3-yl}benzene-1-sulfonamide], for which the inhibitory constant (Ki) in assay [1] is 9.7 nM; in assay [2], 414 nM; in assay [3] it was greater than 12700 nM; in assay [4] it was 4120 nM.

`COc1cc2c(NS(=O)(=O)c3c(OC)cccc3OC)noc2cc1Nc1ncc(C)cn1` [Example 110, 2,6-dimethoxy-N-{5-methoxy-6-[(5-methylpyrimidin-2-yl)amino]-1,2-benzoxazol-3-yl}benzene-1-sulfonamide]: the Ki was 44.1 nM in assay [1], 2820 nM in assay [2], greater than 13000 nM in assay [3] and 6610 nM in assay [4].

With `CCc1cc(Nc2cc3onc(NS(=O)(=O)c4cc(F)ccc4Br)c3cc2OC)n[nH]1` [Example 135, 2-bromo-N-{6-[(5-ethyl-1H-pyrazol-3-yl)amino]-5-methoxy-1,2-benzoxazol-3-yl}-5-fluorobenzene-1-sulfonamide], the Ki in assay [1] is 52.6 nM; in assay [2], 156 nM; in assay [3], greater than 13000 nM; in assay [4], 3080 nM.

Values taken from patent publication US20250122183A1 (Pfizer Inc., priority 2023, published 2025).
